Assay: Ready-to-use formulation stability at 2-8° C., 5 mg/mL (R,R)-pyrodach-2 in 10 mM Potassium Phosphate Buffer at pH 7.4, 10 mL vials
Type: physicochemical
Procedure: A scalable and commercially viable process for the manufacture of a ready-to-use formulation of (R,R)-pyrodach-2 in 10 mM buffer adjusted to a pH of 7.0-7.5 comprises the steps of: a) preparing a 10 mM aqueous solution of buffer; b) adding sufficient hydroxide base to effect neutralization of the added (R,R)-pyrodach-2 to reach a pH of about 7; c) adding (R,R)-pyrodach-2 and allowing it to dissolve; d) if necessary adding additional hydroxide to adjust the pH into a range of about 7.0-7.5; and e) filtering the solution under sterile conditions, filling the solution into glass vials, and covering it with a stopper and/or a cap. Stability data on two large batches of 5 mg/mL (R,R)-pyrodach-2 in 10 mM potassium phosphate buffer were generated. One such batch at pH=7.2 was evaluated at both 25° C./60% RH and refrigerated (2-8° C.) conditions, with data summarized in Table 4 and Table 5, respectively. […] Similar observations have been made for the ready-to-use liquid formulation at pH7.4, as illustrated in Table 6 and Table 7.
• Transfer 4564.6 mg±0.5 mg of potassium phosphate dibasic, trihydrate to a 2-L volumetric flask. • Fill flask to approximately 75% volume with water, swirl as needed to dissolve all solids. • Volumetrically transfer 32.0 mL of 1N KOH to flask. • Dilute flask to volume with water and mix well. • Record pH of final solution. This is the diluent. • Transfer 7653.1 mg±0.5 mg of (R,R)-pyrodach-2 to a compounding vessel. • Transfer 1500 mL of the diluent to the vessel and stir to dissolve solids. • Record pH of final solution. • Pass entire solution through a 0.22 μm sterile filter membrane into a sterile collection vessel. • Calculate (R,R)-pyrodach-2 solution concentration
To a […] glass beaker equipped with mechanical mixer was add 24645.5 g of sterile water for injection. With agitation 47.03 gm of dibasic potassium phosphate USP was added and the solids allowed to dissolve. To the stirred solution was added 253.8 gm of 1.00 N potassium hydroxide. Sterile water for injection USP (900.0 gm) was used as a rinse to facilitate both additions. With vigorous agitation, (R,R)-pyrodach-2 (201.87 gm) was slowly added and agitation continued until all of the solids dissolved. Sterile water for injection USP (900.0 gm) was used as a rinse to facilitate the addition. The pH was determined to be 6.7. A total of 85 mL of 1.00 N potassium hydroxide was added in 5.0 mL aliquots to adjust the pH to 7.3. The solution was sterile filtered through 0.22μ Millipore Millipack filter and aseptically filled, 10 ml top a vial in 10 mL in 10 cc Wheaton clear molded vails, stoppered with a 20 mm stopper and crimp seal capped.

O=P1(O)OP(=O)(O)[O][Pt]2([NH][C@@H]3CCCC[C@H]3[NH]2)[O]1 (stereo partly drawn) [(R,R)-pyrodach-2, (R,R)-trans-1,2-cyclohexanediamine-(dihydrogenpyrophosphato)platinum(II)]
(DACH) Pt-diaquo (~RRT 0.3) (1 Month): 0.15% | (DACH) Pt-monoaquo (~RRT 0.7) (1 Month): 1.04% | Assay (Potency) (1 Month): 98.7% | PT-112 Dimer (~RRT 4.0) (1 Month): 0.33% | RRT 0.50 (1 Month): 0.06% | RRT 0.56 (1 Month): 0.10% | RRT 0.68 (1 Month): 0.19% | RRT 0.86 (1 Month): 0.05% | RRT 3.1-3.2 (1 Month): 0.13% | Total Related Substances (1 Month): 2% | pH (1 Month): 7.4 | (DACH) Pt-diaquo (~RRT 0.3) (3 Month): 0.14% | (DACH) Pt-monoaquo (~RRT 0.7) (3 Month): 0.92% | Assay (Potency) (3 Month): 99.7% | PT-112 Dimer (~RRT 4.0) (3 Month): 0.37% | RRT 0.50 (3 Month): 0.06% | RRT 0.56 (3 Month): 0.12% | RRT 0.68 (3 Month): 0.11% | RRT 3.1-3.2 (3 Month): 0.25% | Total Related Substances (3 Month): 2% | pH (3 Month): 7.4 | (DACH) Pt-diaquo (~RRT 0.3) (6 Month): 0.17% | (DACH) Pt-monoaquo (~RRT 0.7) (6 Month): 0.28% | Assay (Potency) (6 Month): 98.2% | PT-112 Dimer (~RRT 4.0) (6 Month): 0.36% | RRT 0.46 (6 Month): 0.06% | RRT 0.50 (6 Month): 0.18% | RRT 0.56 (6 Month): 0.06% | RRT 0.68 (6 Month): 0.16% | RRT 0.86 (6 Month): 0.05% | RRT 3.1-3.2 (6 Month): 0.38% | Total Related Substances (6 Month): 2% | pH (6 Month): 7.4 | Particulate Matter (Light Obscuration) (6 Month, first value): 83 particles particles per container | Particulate Matter (Light Obscuration) (6 Month, second value): 1 particles particles per container | (DACH) Pt-diaquo (~RRT 0.3) (9 Month): 0.14% | (DACH) Pt-monoaquo (~RRT 0.7) (9 Month): 0.81% | Assay (Potency) (9 Month): 100.2% | PT-112 Dimer (~RRT 4.0) (9 Month): 0.33% | RRT 0.46 (9 Month): 0.05% | RRT 0.50 (9 Month): 0.18% | RRT 0.56 (9 Month): 0.07% | RRT 0.68 (9 Month): 0.08% | RRT 0.86 (9 Month): 0.05% | RRT 3.1-3.2 (9 Month): 0.39% | RRT 3.58 (9 Month): 0.07% | Total Related Substances (9 Month): 2% | pH (9 Month): 7.4 | (DACH) Pt-diaquo (~RRT 0.3) (12 Month): 0.12% | (DACH) Pt-monoaquo (~RRT 0.7) (12 Month): 0.96% | Assay (Potency) (12 Month): 98.7% | PT-112 Dimer (~RRT 4.0) (12 Month): 0.34% | RRT 0.50 (12 Month): 0.15% | RRT 0.56 (12 Month): 0.16% | RRT 0.68 (12 Month): 0.11% | RRT 0.86 (12 Month): 0.05% | RRT 3.1-3.2 (12 Month): 0.48% | Total Related Substances (12 Month): 2% | pH (12 Month): 7.4 | Particulate Matter (Light Obscuration) (12 Month, first value): 124 particles per container | Particulate Matter (Light Obscuration) (12 Month, second value): 6 particles particles per container | (DACH) Pt-diaquo (~RRT 0.3) (15 Month): 0.14% | (DACH) Pt-monoaquo (~RRT 0.7) (15 Month): 0.94% | Assay (Potency) (15 Month): 98.0% | PT-112 Dimer (~RRT 4.0) (15 Month): 0.34% | RRT 0.50 (15 Month): 0.16% | RRT 0.56 (15 Month): 0.17% | RRT 0.68 (15 Month): 0.12% | RRT 0.86 (15 Month): 0.06% | RRT 3.1-3.2 (15 Month): 0.59% | RRT 3.58 (15 Month): 0.07% | Total Related Substances (15 Month): 3% | pH (15 Month): 7.4 | (DACH) Pt-diaquo (~RRT 0.3) (18 Month): 0.13% | (DACH) Pt-monoaquo (~RRT 0.7) (18 Month): 0.76% | Assay (Potency) (18 Month): 97.5% | PT-112 Dimer (~RRT 4.0) (18 Month): 0.33% | RRT 0.46 (18 Month): 0.09% | RRT 0.50 (18 Month): 0.26% | RRT 0.56 (18 Month): 0.06% | RRT 0.68 (18 Month): 0.08% | RRT 0.86 (18 Month): 0.05% | RRT 3.1-3.2 (18 Month): 0.58% | RRT 3.58 (18 Month): 0.10% | Total Related Substances (18 Month): 2% | pH (18 Month): 7.4 | (DACH) Pt-diaquo (~RRT 0.3) (21 Month): 0.12% | (DACH) Pt-monoaquo (~RRT 0.7) (21 Month): 1.07% | Assay (Potency) (21 Month): 97.4% | PT-112 Dimer (~RRT 4.0) (21 Month): 0.35% | RRT 0.46 (21 Month): 0.07% | RRT 0.50 (21 Month): 0.23% | RRT 0.56 (21 Month): 0.12% | RRT 0.68 (21 Month): 0.14% | RRT 0.86 (21 Month): 0.05% | RRT 3.1-3.2 (21 Month): 0.67% | RRT 3.58 (21 Month): 0.10% | Total Related Substances (21 Month): 3% | pH (21 Month): 7.4 | (DACH) Pt-diaquo (~RRT 0.3) (24 Month): 0.11% | (DACH) Pt-monoaquo (~RRT 0.7) (24 Month): 0.93% | Assay (Potency) (24 Month): 96.5% | PT-112 Dimer (~RRT 4.0) (24 Month): 0.33% | RRT 0.46 (24 Month): 0.08% | RRT 0.50 (24 Month): 0.25% | RRT 0.56 (24 Month): 0.12% | RRT 0.68 (24 Month): 0.11% | RRT 0.86 (24 Month): 0.06% | RRT 3.1-3.2 (24 Month): 0.65% | RRT 3.58 (24 Month): 0.14% | Total Related Substances (24 Month): 3% | pH (24 Month): 7.4 | (DACH) Pt-diaquo (~RRT 0.3) (Initial): 0.16% | (DACH) Pt-monoaquo (~RRT 0.7) (Initial): 0.84% | Assay (Potency) (Initial): 98.1% | PT-112 Dimer (~RRT 4.0) (Initial): 0.34% | RRT 0.50 (Initial): 0.06% | RRT 0.56 (Initial): 0.08% | RRT 0.68 (Initial): 0.09% | RRT 3.1-3.2 (Initial): 0.11% | Total Related Substances (Initial): 2% | pH (Initial): 7.4 | Particulate Matter (Light Obscuration) (Initial, first value): 30 particles particles per container | Particulate Matter (Light Obscuration) (Initial, second value): 11 particles particles per container

— patent publication US11154529B2, “Phosphaplatin liquid formulations” (Phosplatin Therapeutics Inc., priority 2016, dated 2021)
